Key:
corn = assay: Test A pre-/postemergence herbicide test; type: in vivo, Zea mays
Outline: (§1)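 Visual injury ratings, 0 = no effect, 100 = complete control, taken ~10 days after treatment against untreated greenhouse controls. Preemergence: directed soil spray onto seeded loam/sand pots. Postemergence: spray onto plants at one- to two-leaf stage, 2–10 cm tall.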

sedge, umbrella = assay: Test B flooded paddy test; type: in vivo, Cyperus difformis; settings: Flood, scale of 0 to 100 where 0 is no effect and 100 is complete control
Outline: (§2)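 Plants grown to 2-leaf stage; pots flooded 3 cm above soil and compound applied directly into paddy water, depth held throughout. Visual rating against untreated controls after 13 to 15 days in greenhouse, 0 (no effect) to 100 (complete control).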

rice = assay: Test B flooded paddy test; type: in vivo, Oryza sativa; settings: Flood, scale of 0 to 100 where 0 is no effect and 100 is complete control
Method: (§3) Plant species in the flooded paddy test selected from rice (Oryza sativa), sedge, umbrella (small-flower umbrella sedge, Cyperus difformis), ducksalad (Heteranthera limosa), and barnyardgrass (Echinochloa crus-galli) were grown to the 2-leaf stage for testing. At time of treatment, test pots were flooded to 3 cm above the soil surface, treated by application of test compounds directly to the paddy water, and then maintained at that water depth for the duration of the test. Treated plants and controls were maintained in a greenhouse for 13 to 15 days, after which time all species were compared to controls and visually evaluated. Plant response ratings, summarized in Table B, are based on a scale of 0 to 100 where 0 is no effect and 100 is complete control. A dash (-) response means no test result.

velvetleaf = assay: Test A pre-/postemergence herbicide test; type: in vivo, Abutilon theophrasti
Outline: as §1

ducksalad = assay: Test B flooded paddy test; type: in vivo, Heteranthera limosa; settings: Flood, scale of 0 to 100 where 0 is no effect and 100 is complete control
Outline: as §2

giant foxtail = assay: Test A pre-/postemergence herbicide test; type: in vivo, Setaria faberii
Outline: as §1

barnyardgrass [1] = assay: Test A pre-/postemergence herbicide test; type: in vivo, Echinochloa crus-galli
Outline: as §1

crabgrass, large = assay: Test A pre-/postemergence herbicide test; type: in vivo, Digitaria sanguinalis
Outline: as §1

morningglory = assay: Test A pre-/postemergence herbicide test; type: in vivo, Ipomoea spp.
Outline: as §1

wheat = assay: Test A pre-/postemergence herbicide test; type: in vivo, Triticum aestivum
Outline: as §1

pigweed = assay: Test A pre-/postemergence herbicide test; type: in vivo, Amaranthus retroflexus
Outline: as §1

barnyardgrass [2] = assay: Test B flooded paddy test; type: in vivo, Echinochloa crus-galli; settings: Flood, scale of 0 to 100 where 0 is no effect and 100 is complete control
Method: as §3

[3] = Postemergence, 125 g ai/ha, 0 to 100 scale, 0 no effect, 100 complete control
[4] = Postemergence, 500 g ai/ha, 0 to 100 scale (0 no effect, 100 complete control)
[5] = Preemergence, 125 g ai/ha, visual rating on 0 to 100 scale (0 no effect, 100 complete control)
[6] = preemergence, 500 g ai/ha, 0 to 100 scale
[7] = Postemergence, 125 g ai/ha, 0 to 100 scale, 0 is no effect, 100 is complete control
[8] = Preemergence, 125 g ai/ha, 0 to 100 scale where 0 is no effect and 100 is complete control
[9] = preemergence, 500 g ai/ha, 0 to 100 scale, 0 is no effect and 100 is complete control
[10] = Postemergence, 125 g ai/ha, visual rating on 0 to 100 scale (0 no effect, 100 complete control), approx. 10 days

Cc1cccc(C2CN(C(=O)OC(C)(C)C)C(=O)C2C(=O)Nc2ccccc2F)c1 (centres unmarked) [Compound 37]
Plant response rating, Corn (corn; [3]): 0
Plant response rating, Corn (corn; [4]): 0
Corn plant response rating (corn; [5]): 0
Plant response rating, Corn (corn; [6]): 0
Plant response rating, Sedge, Umbrella (sedge, umbrella; 250 g ai/ha): 20
Plant response rating, Rice (rice; 250 g ai/ha): 0
Plant response rating, Velvetleaf (velvetleaf; [3]): 0
Plant response rating, Velvetleaf (velvetleaf; [4]): 0
Velvetleaf plant response rating (velvetleaf; [5]): 0
Plant response rating, Velvetleaf (velvetleaf; [6]): 0
Plant response rating, Ducksalad (ducksalad; 250 g ai/ha): 0
Plant response rating, Foxtail, Giant (giant foxtail; [3]): 0
Plant response rating, Foxtail, Giant (giant foxtail; [4]): 20
Foxtail, Giant plant response rating (giant foxtail; [5]): 0
Plant response rating, Foxtail, Giant (giant foxtail; [6]): 20
Plant response rating, Barnyardgrass (barnyardgrass [1]; [3]): 0
Plant response rating, Barnyardgrass (barnyardgrass [1]; [4]): 50
Barnyardgrass plant response rating (barnyardgrass [1]; [5]): 0
Plant response rating, Barnyardgrass (barnyardgrass [1]; preemergence, 500 g ai/ha, 0 to 100 scale (0 no effect, 100 complete control)): 80
Plant response rating, Crabgrass, Large (crabgrass, large; [3]): 0
Plant response rating, Crabgrass, Large (crabgrass, large; [4]): 20
Crabgrass, Large plant response rating (crabgrass, large; [5]): 0
Plant response rating, Crabgrass, Large (crabgrass, large; [6]): 80
Plant response rating, Morningglory (morningglory; [3]): 0
Plant response rating, Morningglory (morningglory; [4]): 0
Morningglory plant response rating (morningglory; [5]): 0
Plant response rating, Morningglory (morningglory; [6]): 0
Plant response rating, Wheat (wheat; [3]): 0
Plant response rating, Wheat (wheat; [4]): 0
Wheat plant response rating (wheat; [5]): 0
Plant response rating, Wheat (wheat; [6]): 30
Plant response rating, Pigweed (pigweed; [3]): 0
Plant response rating, Pigweed (pigweed; [4]): 0
Pigweed plant response rating (pigweed; [5]): 0
Plant response rating, Pigweed (pigweed; [6]): 0
Plant response rating, Barnyardgrass (barnyardgrass [2]; 250 g ai/ha): 0

O=C1NCC(c2ccc(Cl)c(C(F)(F)F)c2)C1C(=O)Nc1ccccc1F (racemic) [Compound 267]
Plant response rating, Corn (corn; [7]): 40
Plant response rating, Corn (corn; [4]): 70
Plant response rating, Corn (corn; [8]): 0
Plant response rating, Corn (corn; [9]): 0
Plant response rating, Sedge, Umbrella (sedge, umbrella; 1000 g ai/ha): 0
Plant response rating, Rice (rice; 1000 g ai/ha): 15
Plant response rating, Velvetleaf (velvetleaf; [10]): 30
Plant response rating, Velvetleaf (velvetleaf; [8]): 0
Plant response rating, Velvetleaf (velvetleaf; [9]): 0
Plant response rating, Ducksalad (ducksalad; 1000 g ai/ha): 100
Plant response rating, Foxtail, Giant (giant foxtail; [7]): 70
Plant response rating, Foxtail, Giant (giant foxtail; [4]): 80
Plant response rating, Foxtail, Giant (giant foxtail; [8]): 80
Plant response rating, Foxtail, Giant (giant foxtail; [9]): 90
Plant response rating, Barnyardgrass (barnyardgrass [1]; [7]): 70
Plant response rating, Barnyardgrass (barnyardgrass [1]; [4]): 80
Plant response rating, Barnyardgrass (barnyardgrass [1]; [8]): 70
Plant response rating, Barnyardgrass (barnyardgrass [1]; [9]): 80
Plant response rating, Crabgrass, Large (crabgrass, large; [7]): 80
Plant response rating, Crabgrass, Large (crabgrass, large; [4]): 90
Plant response rating, Crabgrass, Large (crabgrass, large; [8]): 90
Plant response rating, Crabgrass, Large (crabgrass, large; [9]): 90
Plant response rating, Morningglory (morningglory; [10]): 0
Plant response rating, Morningglory (morningglory; [4]): 60
Plant response rating, Morningglory (morningglory; [8]): 0
Plant response rating, Morningglory (morningglory; [9]): 0
Plant response rating, Wheat (wheat; [10]): 0
Plant response rating, Wheat (wheat; [4]): 0
Plant response rating, Wheat (wheat; [8]): 0
Plant response rating, Wheat (wheat; [9]): 0
Plant response rating, Pigweed (pigweed; [10]): 0
Plant response rating, Pigweed (pigweed; [4]): 60
Plant response rating, Pigweed (pigweed; [8]): 0
Plant response rating, Pigweed (pigweed; [9]): 50
Plant response rating, Barnyardgrass (barnyardgrass [2]; 1000 g ai/ha): 20

Reference: US10294202B2, “Pyrrolidinones as herbicides” (FMC Corporation, priority 2013, dated 2019)
